Laboratory results as given in patent US20250243196A1, “CITRON KINASE INHIBITORS” (The Cleveland Clinic Foundation, priority 2021, published 2025).

Target: Citron kinase (Homo sapiens (Human), UniProt O14578)
Test: Radiometric citron kinase assay (Eurofins Cat #16-040KP)
Type: biochemical
Settings: mean of at least two independent assays; read-out: Radiometric CitK IC50
Text: In some embodiments, the step of contacting the sample with the compound comprises administering the compound to a subject (e.g., a subject) suffering from cancer. Methods of determining kinase inhibition are well known in the art. For example, kinase activity of an enzyme and the inhibitory capacity of a test compound can be determined by measuring enzyme specific phosphorylation of a substrate. Commercial assays and kits can be employed. For example, kinase inhibition can be determined using a radiometric binding assay, such as using KinaseProfiler™ technology (Eurofins Discovery). This assay method directly detects product formation without the use of modified substrates or coupling enzymes. Test compounds are incubated with kinase, substrate, required cofactors and radioisotope labeled ATP. Following incubation, unreacted radioactive ATP is removed by washing and incorporation of the radiolabeled phosphate into the kinase substrate is assayed to detect phosphoryltransferase activity, which is directly proportional to the amount of phosphorylated substrate. Inhibition of the kinase by a kinase inhibitor prevents phosphorylation of the substrate and thereby limits the incorporation of radiolabeled phosphate. Such an assay is compatible with a microwell assay format, allowing simultaneous determination of IC50 of multiple compounds.
Compounds were screened for biochemical kinase activity (Eurofins Discovery, France) using one of two assays. […] All values in Table 1 are the mean of at least two independent assays.

Citron kinase, sequence (O14578 whole entry): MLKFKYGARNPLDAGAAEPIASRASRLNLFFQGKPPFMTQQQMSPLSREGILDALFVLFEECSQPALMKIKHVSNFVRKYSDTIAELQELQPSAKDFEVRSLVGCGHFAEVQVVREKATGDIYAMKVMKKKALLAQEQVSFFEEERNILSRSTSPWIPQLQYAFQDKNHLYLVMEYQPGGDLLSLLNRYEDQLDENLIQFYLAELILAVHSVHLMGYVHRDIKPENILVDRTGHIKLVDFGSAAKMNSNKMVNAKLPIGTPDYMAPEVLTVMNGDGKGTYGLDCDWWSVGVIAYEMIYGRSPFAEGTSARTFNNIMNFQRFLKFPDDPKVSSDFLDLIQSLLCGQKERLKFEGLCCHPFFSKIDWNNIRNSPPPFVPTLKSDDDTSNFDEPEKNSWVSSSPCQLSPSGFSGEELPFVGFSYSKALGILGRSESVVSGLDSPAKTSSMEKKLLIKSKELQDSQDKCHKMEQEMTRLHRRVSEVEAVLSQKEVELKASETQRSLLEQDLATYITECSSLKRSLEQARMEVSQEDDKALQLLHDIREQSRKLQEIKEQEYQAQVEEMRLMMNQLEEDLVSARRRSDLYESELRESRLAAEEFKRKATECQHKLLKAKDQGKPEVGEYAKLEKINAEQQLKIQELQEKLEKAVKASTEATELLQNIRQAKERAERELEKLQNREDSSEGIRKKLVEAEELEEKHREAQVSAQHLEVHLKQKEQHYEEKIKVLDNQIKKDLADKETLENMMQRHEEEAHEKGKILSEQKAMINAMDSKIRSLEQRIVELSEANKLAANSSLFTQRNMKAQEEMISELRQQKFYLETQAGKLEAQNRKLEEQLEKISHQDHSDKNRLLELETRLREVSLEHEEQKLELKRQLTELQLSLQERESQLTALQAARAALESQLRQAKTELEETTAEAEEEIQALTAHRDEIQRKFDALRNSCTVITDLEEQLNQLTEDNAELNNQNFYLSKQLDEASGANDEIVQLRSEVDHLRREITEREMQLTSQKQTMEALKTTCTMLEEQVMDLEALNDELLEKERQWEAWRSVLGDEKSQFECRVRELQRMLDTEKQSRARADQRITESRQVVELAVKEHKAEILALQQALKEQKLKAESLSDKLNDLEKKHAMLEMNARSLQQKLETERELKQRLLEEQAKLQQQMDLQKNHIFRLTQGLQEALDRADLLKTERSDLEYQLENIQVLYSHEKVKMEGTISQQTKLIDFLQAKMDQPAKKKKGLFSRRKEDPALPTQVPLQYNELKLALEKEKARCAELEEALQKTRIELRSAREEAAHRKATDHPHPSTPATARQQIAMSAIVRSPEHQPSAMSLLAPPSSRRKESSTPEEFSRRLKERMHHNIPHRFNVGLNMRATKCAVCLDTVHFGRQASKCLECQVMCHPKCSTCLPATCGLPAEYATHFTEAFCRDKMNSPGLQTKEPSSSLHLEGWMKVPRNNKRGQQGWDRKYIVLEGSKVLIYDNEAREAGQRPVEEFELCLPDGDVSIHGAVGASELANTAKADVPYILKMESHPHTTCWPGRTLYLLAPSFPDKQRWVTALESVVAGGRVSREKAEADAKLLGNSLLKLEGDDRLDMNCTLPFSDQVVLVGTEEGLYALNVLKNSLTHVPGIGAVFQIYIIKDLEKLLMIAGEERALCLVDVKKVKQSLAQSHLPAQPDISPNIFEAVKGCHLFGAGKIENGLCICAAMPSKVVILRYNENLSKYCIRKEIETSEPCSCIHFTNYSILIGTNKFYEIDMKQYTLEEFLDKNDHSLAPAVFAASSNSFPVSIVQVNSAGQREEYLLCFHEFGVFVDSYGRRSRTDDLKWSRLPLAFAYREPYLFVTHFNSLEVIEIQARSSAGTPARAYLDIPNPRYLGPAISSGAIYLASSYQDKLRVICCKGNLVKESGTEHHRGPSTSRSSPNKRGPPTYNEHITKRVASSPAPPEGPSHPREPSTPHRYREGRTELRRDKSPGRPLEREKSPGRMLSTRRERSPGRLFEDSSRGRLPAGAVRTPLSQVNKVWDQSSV

Compound | IC50 [µM]
N[C@H](Cc1ccccc1)C(=O)Nc1ccc(-c2ccnc3[nH]ccc23)cc1Cl [Compound F-133, (2R)-2-Amino-N-[2-chloro-4-(1H-pyrrolo[2,3-b]pyridin-4-yl)phenyl]-3-phenyl-propanamide] | 0.557
N[C@H](Cc1ccccc1)C(=O)Nc1cccc(-c2ccnc3[nH]ccc23)c1 [Compound F-134, (2R)-2-Amino-3-phenyl-N-[3-(1H-pyrrolo[2,3-b]pyridin-4-yl)phenyl]propanamide] | 0.0641
Cc1cc(NC(=O)[C@H](N)C(C)(C)O)ccc1-c1ccnc2[nH]c(C(F)F)cc12 [Compound F-139, (2R)-2-Amino-N-[4-[2-(difluoromethyl)-1H-pyrrolo[2,3-b]pyridin-4-yl]-3-methyl-phenyl]-3-hydroxy-3-methyl-butanamide] | 0.151
CC(C)(C)C[C@@H](N)C(=O)Nc1ccc(-c2ccnc3[nH]c(C4CC4)cc23)cc1 [Compound F-141, (2R)-2-Amino-N-[4-(2-cyclopropyl-1H-pyrrolo[2,3-b]pyridin-4-yl)phenyl]-4,4-dimethyl-pentanamide] | 0.01
CC(C)(C)C[C@@H](N)C(=O)Nc1ccc(-c2ccnc3[nH]c(C(F)F)cc23)cc1 [Compound F-143, (2R)-2-Amino-N-[4-[2-(difluoromethyl)-1H-pyrrolo[2,3-b]pyridin-4-yl]phenyl]-4,4-dimethyl-pentanamide] | 0.004
Cc1cc2c(-c3ccc(NC(=O)[C@H](N)CC(C)(C)C)cn3)ccnc2[nH]1 [Compound F-145, (2R)-2-Amino-4,4-dimethyl-N-(6-(2-methyl-1H-pyrrolo[2,3-b]pyridin-4-yl)pyridin-3-yl)pentanamide] | 0.026
CC(C)(C)C[C@@H](N)C(=O)Nc1ccc(-c2ccnc3[nH]c(C(F)(F)F)cc23)cn1 [Compound F-146, (2R)-2-Amino-4,4-dimethyl-N-[5-[2-(trifluoromethyl)-1H-pyrrolo[2,3-b]pyridin-4-yl]-2-pyridyl]pentanamide] | 0.307
Cc1c(-c2ccnc3[nH]c(C(F)(F)F)cc23)ccc(NC(=O)[C@H](N)CC(C)(C)C)c1F [Compound F-147, (2R)-2-Amino-N-[2-fluoro-3-methyl-4-[2-(trifluoromethyl)-1H-pyrrolo[2,3-b]pyridin-4-yl]phenyl]-4,4-dimethyl-pentanamide] | 0.024
COc1nc(-c2ccnc3[nH]c(C)cc23)ccc1NC(=O)[C@H](N)CC(C)(C)C [Compound F-148, (2R)-2-Amino-N-[2-methoxy-6-(2-methyl-1H-pyrrolo[2,3-b]pyridin-4-yl)-3-pyridyl]-4,4-dimethyl-pentanamide] | 0.018
COc1nc(-c2ccnc3[nH]c(C(F)(F)F)cc23)ccc1NC(=O)[C@H](N)CC(C)(C)C [Compound F-149, (2R)-2-Amino-N-[2-methoxy-6-[2-(trifluoromethyl)-1H-pyrrolo[2,3-b]pyridin-4-yl]-3-pyridyl]-4,4-dimethyl-pentanamide] | 0.038
COc1nc(-c2ccnc3[nH]c(C(F)F)cc23)ccc1NC(=O)[C@H](N)CC(C)(C)C [Compound F-150, (2R)-2-Amino-N-[6-[2-(difluoromethyl)-1H-pyrrolo[2,3-b]pyridin-4-yl]-2-methoxy-3-pyridyl]-4,4-dimethyl-pentanamide] | 0.009
Cc1cc2c(-c3ccc(NC(=O)[C@H](N)CC(C)(C)C)nc3C)ccnc2[nH]1 [Compound F-151, (2R)-2-Amino-4,4-dimethyl-N-[6-methyl-5-(2-methyl-1H-pyrrolo[2,3-b]pyridin-4-yl)-2-pyridyl]pentanamide] | 0.091
COc1nc(NC(=O)[C@H](N)CC(C)(C)C)ccc1-c1ccnc2[nH]c(C)cc12 [Compound F-153, (2R)-2-Amino-N-[6-methoxy-5-(2-methyl-1H-pyrrolo[2,3-b]pyridin-4-yl)-2-pyridyl]-4,4-dimethyl-pentanamide] | 0.035
COc1nc(NC(=O)[C@H](N)CC(C)(C)C)ccc1-c1ccnc2[nH]c(C(F)(F)F)cc12 [Compound F-154, (2R)-2-Amino-N-[6-methoxy-5-[2-(trifluoromethyl)-1H-pyrrolo[2,3-b]pyridin-4-yl]-2-pyridyl]-4,4-dimethyl-pentanamide] | 0.059
Cc1cc2c(-c3ccc(NC(=O)[C@H](N)CC(C)(C)C)c(F)c3C)ccnc2[nH]1 [Compound F-156, (2R)-2-Amino-N-[2-fluoro-3-methyl-4-(2-methyl-1H-pyrrolo[2,3-b]pyridin-4-yl)phenyl]-4,4-dimethyl-pentanamide] | 0.01
COc1cccc(C[C@@H](N)C(=O)Nc2ccc(-c3ccnc4[nH]c(C)cc34)c(C)c2)c1 [Compound F-157, (2R)-2-Amino-3-(3-methoxyphenyl)-N-[3-methyl-4-(2-methyl-1H-pyrrolo[2,3-b]pyridin-4-yl)phenyl]propenamide] | 0.519
Cc1cc2c(-c3ccc(NC(=O)[C@@H](N)CC(C)(C)C)cc3C)ccnc2[nH]1 [Compound F-158, (2S)-2-Amino-4,4-dimethyl-N-[3-methyl-4-(2-methyl-1H-pyrrolo[2,3-b]pyridin-4-yl)phenyl]pentanamide] | 0.126
Cc1cc2c(-c3ccc(NC(=O)C(N)C(O)C(C)(C)C)cc3C)ccnc2[nH]1 (centres unmarked) [Compound F-160, 2-Amino-3-hydroxy-4,4-dimethyl-N-[3-methyl-4-(2-methyl-1H-pyrrolo[2,3-b]pyridin-4-yl)phenyl]pentanamide] | 0.029
COc1cc(NC(=O)[C@H](N)CC(C)(C)C)ccc1-c1ccnc2[nH]c(C)cc12 [Compound F-167, (2R)-2-Amino-N-[3-methoxy-4-(2-methyl-1H-pyrrolo[2,3-b]pyridin-4-yl)phenyl]-4,4-dimethyl-pentanamide] | 0.05
COc1cc(NC(=O)[C@H](N)C(C)(C)O)ccc1-c1ccnc2[nH]c(C)cc12 [Compound F-168, (2R)-2-Amino-3-hydroxy-N-[3-methoxy-4-(2-methyl-1H-pyrrolo[2,3-b]pyridin-4-yl)phenyl]-3-methyl-butanamide] | 1.53
Cc1cc2c(-c3ccc(NC(=O)[C@H](N)C(C)(C)O)cc3OC(F)F)ccnc2[nH]1 [Compound F-170, (2R)-2-Amino-N-[3-(difluoromethoxy)-4-(2-methyl-1H-pyrrolo[2,3-b]pyridin-4-yl)phenyl]-3-hydroxy-3-methyl-butanamide] | 0.315

The next lines start with the values.

IC50 [µM] | Compound
0.237 | Cc1cc(-c2ccnc3[nH]ccc23)ccc1NC(=O)[C@H](N)Cc1ccccc1 [Compound F-132, (2R)-2-Amino-N-[2-methyl-4-(1H-pyrrolo[2,3-b]pyridin-4-yl)phenyl]-3-phenyl-propanamide]
1.26 | CCc1c[nH]c2nccc(-c3ccc(NC(=O)[C@H](N)Cc4ccccc4)cc3)c12 [Compound F-136, (2R)-2-Amino-N-[4-(3-ethyl-1H-pyrrolo[2,3-b]pyridin-4-yl)phenyl]-3-phenyl-propanamide]
0.0231 | Cc1c(-c2ccnc3[nH]ccc23)ccc(NC(=O)[C@H](N)C(C)(C)C)c1F [Compound F-137, (2R)-2-Amino-N-[2-fluoro-3-methyl-4-(1H-pyrrolo[2,3-b]pyridin-4-yl)phenyl]-3,3-dimethyl-butanamide]
3 | Cc1cc(NC(=O)[C@H](N)C(C)(C)C)cc(C)c1-c1ccnc2[nH]ccc12 [Compound F-138, (2R)-2-Amino-N-[3,5-dimethyl-4-(1H-pyrrolo[2,3-b]pyridin-4-yl)phenyl]-3,3-dimethyl-butanamide]
0.018 | Cc1cc(NC(=O)[C@H](N)CC(C)(C)C)ccc1-c1ccnc2[nH]c(C3CC3)cc12 [Compound F-142, (2R)-2-Amino-N-[4-(2-cyclopropyl-1H-pyrrolo[2,3-b]pyridin-4-yl)-3-methyl-phenyl]-4,4-dimethyl-pentanamide]
0.022 | CC(C)(C)C[C@@H](N)C(=O)Nc1ccc(-c2ccnc3[nH]c(C(F)(F)F)cc23)cc1 [Compound F-144, (2R)-2-amino-4,4-dimethyl-N-[4-[2-(trifluoromethyl)-1H-pyrrolo[2,3-b]pyridin-4-yl]phenyl]pentanamide]
0.12 | Cc1nc(NC(=O)[C@H](N)CC(C)(C)C)ccc1-c1ccnc2[nH]c(C(F)F)cc12 [Compound F-152, (2R)-2-Amino-N-[5-[2-(difluoromethyl)-1H-pyrrolo[2,3-b]pyridin-4-yl]-6-methyl-2-pyridyl]-4,4-dimethyl-pentanamide]
0.113 | COc1nc(NC(=O)[C@H](N)CC(C)C)ccc1-c1ccnc2[nH]c(C(F)(F)F)cc12 [Compound F-155, (2R)-2-Amino-N-[6-methoxy-5-[2-(trifluoromethyl)-1H-pyrrolo[2,3-b]pyridin-4-yl]-2-pyridyl]-4-methyl-pentanamide]
0.852 | Cc1cc2c(-c3ccc(NC(=O)[C@@H](N)C(C)(C)O)cc3C)ccnc2[nH]1 [Compound F-159, (2S)-2-Amino-3-hydroxy-3-methyl-N-[3-methyl-4-(2-methyl-1H-pyrrolo[2,3-b]pyridin-4-yl)phenyl]butanamide]
0.037 | COc1cc(NC(=O)[C@H](N)CC(C)(C)C)ccc1-c1ccnc2[nH]ccc12 [Compound F-166, (2R)-2-Amino-N-[3-methoxy-4-(1H-pyrrolo[2,3-b]pyridin-4-yl)phenyl]-4,4-dimethyl-Pentanamide]
0.053 | Cc1cc2c(-c3ccc(NC(=O)[C@H](N)CC(C)(C)C)cc3OC(F)F)ccnc2[nH]1 [Compound F-169, (2R)-2-Amino-N-[3-(difluoromethoxy)-4-(2-methyl-1H-pyrrolo[2,3-b]pyridin-4-yl)phenyl]-4,4-dimethyl-pentanamide]
